Patent US10093630B2, “Pyrazole compounds and methods of making and using same” (ABIDE THERAPEUTICS, INC., priority 2014, dated 2018)

What was measured:
Assay in all cases: In vitro competitive activity-based protein profiling (gel-based, FP-Rh or HT-01 probe)
Type in all cases: biochemical
[1] = molecular target: T1, PLA2G7 (Mus musculus, UniProt Q60963); conditions: for inhibition at 1 µM: 1 μM inhibitor, read-out: % Inhibition at 1 μM, D = PLA2G7; for inhibition at 1 µM / inhibition at 10 µM: gel-based competitive ABPP; for inhibition at 10 µM: 10 μM inhibitor, read-out: % Inhibition at 10 μM, D = PLA2G7
T1 construct: Proteomes (mouse brain membrane fraction or cell lysates); from tissue; host or cells: mouse brain membrane fraction (or cell lysates, not specified)
T1 sequence (Q60963 22-440): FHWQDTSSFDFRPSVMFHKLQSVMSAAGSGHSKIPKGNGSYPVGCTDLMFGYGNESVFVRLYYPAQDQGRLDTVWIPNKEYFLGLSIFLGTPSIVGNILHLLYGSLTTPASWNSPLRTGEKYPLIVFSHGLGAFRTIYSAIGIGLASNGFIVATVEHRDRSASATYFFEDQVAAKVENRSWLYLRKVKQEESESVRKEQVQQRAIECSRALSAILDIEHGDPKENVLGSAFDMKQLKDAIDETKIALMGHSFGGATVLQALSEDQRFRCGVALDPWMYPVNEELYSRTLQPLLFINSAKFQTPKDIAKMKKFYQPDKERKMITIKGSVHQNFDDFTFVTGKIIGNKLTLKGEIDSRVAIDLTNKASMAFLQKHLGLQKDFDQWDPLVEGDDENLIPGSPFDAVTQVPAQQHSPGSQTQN
Method in brief: (§1)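 Steps: inhibitor dilutions + proteome (1.0 mg/mL), 30 min, 37° C; add FP-Rh or HT-01 (50 μM DMSO stock), 30 min, 37° C; quench in SDS buffer; SDS-PAGE; gel imaging; band densitometry.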

[2] = molecular target: T2, FAAH (Mus musculus, UniProt O08914); conditions: for inhibition at 1 µM: 1 μM inhibitor, read-out: % Inhibition at 1 μM, B = FAAH; for inhibition at 1 µM / inhibition at 10 µM: gel-based competitive ABPP; for inhibition at 10 µM: 10 μM inhibitor, read-out: % Inhibition at 10 μM, B = FAAH
T2 construct: Proteomes (mouse brain membrane fraction or cell lysates); from tissue; host or cells: mouse brain membrane fraction (or cell lysates, not specified)
T2 sequence (O08914 1-579): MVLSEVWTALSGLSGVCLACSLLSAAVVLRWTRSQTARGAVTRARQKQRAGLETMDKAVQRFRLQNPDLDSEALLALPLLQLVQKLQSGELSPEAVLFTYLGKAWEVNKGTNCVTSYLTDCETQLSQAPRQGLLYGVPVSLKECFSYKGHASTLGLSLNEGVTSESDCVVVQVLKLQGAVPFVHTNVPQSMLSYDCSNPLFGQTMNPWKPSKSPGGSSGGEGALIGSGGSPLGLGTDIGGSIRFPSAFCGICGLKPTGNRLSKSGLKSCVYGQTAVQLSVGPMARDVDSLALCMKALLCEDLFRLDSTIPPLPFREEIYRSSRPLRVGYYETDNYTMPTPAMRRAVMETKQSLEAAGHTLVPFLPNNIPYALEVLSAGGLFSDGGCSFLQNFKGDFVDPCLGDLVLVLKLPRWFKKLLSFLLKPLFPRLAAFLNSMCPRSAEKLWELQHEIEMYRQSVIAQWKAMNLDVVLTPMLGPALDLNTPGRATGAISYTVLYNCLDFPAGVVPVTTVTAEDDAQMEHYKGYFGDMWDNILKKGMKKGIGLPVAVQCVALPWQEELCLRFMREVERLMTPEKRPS
Method in brief: as §1

[3] = molecular target: T3, MAGL (Mus musculus, UniProt O35678); conditions: for inhibition at 1 µM: 1 μM inhibitor; for inhibition at 1 µM / inhibition at 10 µM: gel-based competitive ABPP; for inhibition at 10 µM: 10 μM inhibitor
T3 construct: Proteomes (mouse brain membrane fraction or cell lysates); from tissue; host or cells: mouse brain membrane fraction (or cell lysates, not specified)
T3 sequence (O35678 1-303): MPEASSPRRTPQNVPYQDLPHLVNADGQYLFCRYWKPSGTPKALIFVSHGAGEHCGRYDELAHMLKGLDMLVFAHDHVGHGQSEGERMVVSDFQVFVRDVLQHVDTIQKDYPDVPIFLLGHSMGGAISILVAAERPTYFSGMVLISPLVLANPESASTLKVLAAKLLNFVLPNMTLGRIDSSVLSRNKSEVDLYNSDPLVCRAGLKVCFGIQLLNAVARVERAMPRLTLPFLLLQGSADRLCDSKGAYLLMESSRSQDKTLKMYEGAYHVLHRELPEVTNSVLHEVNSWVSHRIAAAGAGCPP
Method in brief: as §1

[4] = molecular target: T4, ABHD6 (Mus musculus, UniProt Q8R2Y0); conditions: for inhibition at 1 µM: 1 μM inhibitor, read-out: % Inhibition at 1 μM, C = ABHD6; for inhibition at 1 µM / inhibition at 10 µM: gel-based competitive ABPP; for inhibition at 10 µM: 10 μM inhibitor, read-out: % Inhibition at 10 μM, C = ABHD6
T4 construct: Proteomes (mouse brain membrane fraction or cell lysates); from tissue; host or cells: mouse brain membrane fraction (or cell lysates, not specified)
T4 sequence (Q8R2Y0 1-336): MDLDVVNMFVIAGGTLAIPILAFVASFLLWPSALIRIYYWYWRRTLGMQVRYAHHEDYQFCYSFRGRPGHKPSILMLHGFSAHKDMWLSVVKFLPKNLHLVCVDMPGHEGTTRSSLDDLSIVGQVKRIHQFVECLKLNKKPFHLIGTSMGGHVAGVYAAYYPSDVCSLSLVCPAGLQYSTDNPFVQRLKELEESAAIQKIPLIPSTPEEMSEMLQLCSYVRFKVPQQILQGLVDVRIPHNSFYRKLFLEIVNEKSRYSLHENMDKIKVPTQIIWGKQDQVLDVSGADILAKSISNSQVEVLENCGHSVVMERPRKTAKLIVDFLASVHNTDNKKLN
Method in brief: as §1

SMILES	inhibition at 1 µM [1]	inhibition at 10 µM [1]	inhibition at 1 µM [2]	inhibition at 10 µM [2]	inhibition at 1 µM [3]	inhibition at 10 µM [3]	inhibition at 1 µM [4]	inhibition at 10 µM [4]	IC50 ([1]; mouse brain membrane fraction or cell lysates, 30 min preincubation at 37° C.)	IC50 ([2]; mouse brain membrane fraction or cell lysates, 30 min preincubation at 37° C., read-out: Mouse (IC50 value, nM) FAAH)	IC50 ([3]; mouse brain membrane fraction or cell lysates, 30 min preincubation at 37° C., read-out: Mouse (IC50 value, nM) MAGL)	IC50 ([4]; mouse brain membrane fraction or cell lysates, 30 min preincubation at 37° C., read-out: Mouse (IC50 value, nM) ABHD6)
O=C(c1cnn(C(=O)N2CCN(Cc3ccc(-c4ccccc4)cc3Cl)CC2)c1)N1CCCC1 [Example 289, (4-((3-Chlorobiphenyl-4-yl)methyl)piperazin-1-yl)(4-(pyrrolidine-1-carbonyl)-1H-pyrazol-1-yl)methanone]	> 75%	> 75%	> 75%	> 75%	> 75%	> 75%	> 75%	> 75%	–	–	–	–
COc1cc(-c2ccccc2)ccc1CN1CCN(C(=O)n2cc(C(=O)N3CCCC3)cn2)CC1 [Example 290, (4-((3-Methoxybiphenyl-4-yl)methyl)piperazin-1-yl)(4-(pyrrolidine-1-carbonyl)-1H-pyrazol-1-yl)methanone]	< 25%	> 75%	> 75%	> 75%	> 75%	> 75%	> 75%	> 75%	–	–	–	–
O=C(c1cnn(C(=O)N2CCN(Cc3ccc(-c4ccccc4)cc3OCc3ccccc3)CC2)c1)N1CCCC1 [Example 291, (4-((3-(Benzyloxy)biphenyl-4-yl)methyl)piperazin-1-yl)(4-(pyrrolidine-1-carbonyl)-1H-pyrazol-1-yl)methanone]	< 25%	25 to 75%	> 75%	> 75%	> 75%	> 75%	> 75%	> 75%	–	–	–	–
N#Cc1cnn(C(=O)N2CCCCCC2)c1 [Example 292, 1-(Azepane-1-carbonyl)-1H-pyrazole-4-carbonitrile]	< 25%	> 75%	> 75%	> 75%	25 to 75%	> 75%	25 to 75%	> 75%	> 1000 nM	100 to 1000 nM	> 1000 nM	> 1000 nM
Cc1cnn(C(=O)NCc2ccc(OCc3ccccc3)cc2)c1 [Example 293, N-(4-(Benzyloxy)benzyl)-4-methyl-1H-pyrazole-1-carboxamide]	< 25%	–	< 25%	–	< 25%	–	< 25%	–	–	–	–	–
Cc1cnn(C(=O)N2CCN(Cc3cccc(Oc4ccccc4)c3)CC2)c1 [Example 294, (4-Methyl-1H-pyrazol-1-yl)(4-(3-phenoxybenzyl)piperazin-1-yl)methanone]	< 25%	–	> 75%	–	> 75%	–	> 75%	–	–	–	–	–
N#Cc1cnn(C(=O)N2CCN(Cc3cccc(Oc4ccccc4)c3)CC2)c1 [Example 295, 1-(4-(3-Phenoxybenzyl)piperazine-1-carbonyl)-1H-pyrazole-4-carbonitrile]	< 25%	–	> 75%	–	> 75%	–	> 75%	–	–	–	–	–
O=C(N1CCN(Cc2cccc(OCc3ccccc3)c2)CC1)n1cccn1 [Example 296, (4-(3-(Benzyloxy)benzyl)piperazin-1-yl)(1H-pyrazol-1-yl)methanone]	< 25%	–	> 75%	–	> 75%	–	> 75%	–	–	–	–	–
Cc1cnn(C(=O)N2CCN(Cc3cccc(OCc4ccccc4)c3)CC2)c1 [Example 297, (4-(3-(Benzyloxy)benzyl)piperazin-1-yl)(4-methyl-1H-pyrazol-1-yl)methanone]	< 25%	–	> 75%	–	> 75%	–	> 75%	–	–	–	–	–
Cc1cnn(C(=O)N2CCCN(Cc3cccc(Oc4ccccc4)c3)CC2)c1 [Example 298, (4-Methyl-1H-pyrazol-1-yl)(4-(3-phenoxybenzyl)-1,4-diazepan-1-yl)methanone]	< 25%	–	< 25%	–	> 75%	–	< 25%	–	–	–	–	–
N#Cc1cnn(C(=O)N2CCCN(Cc3cccc(Oc4ccccc4)c3)CC2)c1 [Example 299, 1-(4-(3-Phenoxybenzyl)-1,4-diazepane-1-carbonyl)-1H-pyrazole-4-carbonitrile]	< 25%	–	> 75%	–	> 75%	–	> 75%	–	–	–	–	–
N#Cc1cnn(C(=O)N2CCCN(Cc3cccc(OCc4ccccc4)c3)CC2)c1 [Example 300, 1-(4-(3-(Benzyloxy)benzyl)-1,4-diazepane-1-carbonyl)-1H-pyrazole-4-carbonitrile]	< 25%	–	> 75%	–	> 75%	–	> 75%	–	–	–	–	–
N#Cc1cnn(C(=O)N2CCCN(Cc3ccc(Oc4ccccc4)cc3)CC2)c1 [Example 301, 1-(4-(4-Phenoxybenzyl)-1,4-diazepane-1-carbonyl)-1H-pyrazole-4-carbonitrile]	< 25%	–	> 75%	–	> 75%	–	> 75%	–	–	–	–	–
Cc1cnn(C(=O)N2CCCN(Cc3ccc(OCc4ccccc4)cc3)CC2)c1 [Example 302, (4-(4-(Benzyloxy)benzyl)-1,4-diazepan-1-yl)(4-methyl-1H-pyrazol-1-yl)methanone]	< 25%	–	< 25%	–	25 to 75%	–	< 25%	–	–	–	–	–
N#Cc1cnn(C(=O)N2CCCN(Cc3ccc(OCc4ccccc4)cc3)CC2)c1 [Example 303, 1-(4-(4-(Benzyloxy)benzyl)-1,4-diazepane-1-carbonyl)-1H-pyrazole-4-carbonitrile]	< 25%	–	> 75%	–	> 75%	–	< 25%	–	–	–	–	–
